Reference: ChEMBL document CHEMBL5375963, “Discovery of a First-in-Class Small-Molecule Ligand for WDR91 Using DNA-Encoded Chemical Library Selection Followed by Machine Learning” (J Med Chem, 2023)
pKd: −log10 of the molar value. Active and inactive are the calls of the source. The rule behind the calls is not given here.

Tests used:
[1] = molecular target: T1, WD repeat-containing protein 91 (Homo sapiens, UniProt A4D1P6); test: (§1) Binding affinity to C-terminal His6-tagged truncated WDR91 (unknown origin) (P392 to A747 residues) expressed in baculovirus-infected Sf9 cells assessed as dissociation constant incubated for 72 to 96 hrs by SPR analysis
T1 sequence (A4D1P6 whole entry): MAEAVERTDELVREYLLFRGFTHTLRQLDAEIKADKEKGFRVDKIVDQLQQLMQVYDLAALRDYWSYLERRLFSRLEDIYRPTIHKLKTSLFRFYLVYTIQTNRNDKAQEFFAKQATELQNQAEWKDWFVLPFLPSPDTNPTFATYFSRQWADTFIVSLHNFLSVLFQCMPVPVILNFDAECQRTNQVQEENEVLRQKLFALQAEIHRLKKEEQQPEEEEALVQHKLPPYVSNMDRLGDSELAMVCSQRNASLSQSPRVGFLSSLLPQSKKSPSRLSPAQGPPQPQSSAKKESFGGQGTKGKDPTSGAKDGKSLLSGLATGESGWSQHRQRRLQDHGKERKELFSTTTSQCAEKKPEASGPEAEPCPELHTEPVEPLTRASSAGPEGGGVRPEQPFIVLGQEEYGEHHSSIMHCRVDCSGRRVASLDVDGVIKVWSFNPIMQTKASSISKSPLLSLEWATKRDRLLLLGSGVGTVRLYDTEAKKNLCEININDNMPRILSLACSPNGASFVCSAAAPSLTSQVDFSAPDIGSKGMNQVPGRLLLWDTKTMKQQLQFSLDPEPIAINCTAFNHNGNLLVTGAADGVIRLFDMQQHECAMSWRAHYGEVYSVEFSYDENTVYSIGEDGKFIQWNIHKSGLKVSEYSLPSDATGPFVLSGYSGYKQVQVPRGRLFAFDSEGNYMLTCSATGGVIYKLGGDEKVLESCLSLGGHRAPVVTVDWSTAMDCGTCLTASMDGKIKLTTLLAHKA

[2] = molecular target: T2, WD repeat-containing protein 91 (Homo sapiens) (UniProt A4D1P6); test: Binding affinity to C-terminal His6-tagged truncated WDR91 (unknown origin) (P392 to A747 residues) expressed in baculovirus-infected Sf9 cells assessed as thermal stabilization by measuring change in melting temperature incubated for 2 hrs by differential scanning fluorimetry analysis
T2 sequence (whole entry): T1 sequence (A4D1P6 whole entry)

[3] = molecular target: T2, WD repeat-containing protein 91 (Homo sapiens); test: Binding affinity to C-terminal His6-tagged truncated WDR91 (unknown origin) (P392 to A747 residues) expressed in baculovirus-infected Sf9 cells assessed as covalent adduct formation incubated for 2 hrs by LC-MS analysis
[4] = molecular target: T2, WD repeat-containing protein 91 (Homo sapiens); test: Binding affinity to C-terminal His6-tagged truncated WDR91 (unknown origin) (P392 to A747 residues) expressed in baculovirus-infected Sf9 cells assessed as maximum response incubated for 2 hrs relative to control
[5] = molecular target: T2, WD repeat-containing protein 91 (Homo sapiens); test: as §1; conditions: time 72-96 hrs

| SMILES | pKd [1] | other results |
| --- | --- | --- |
| O=C(NC1(c2ccc(Cl)cc2)COC1)c1ccc2snnc2c1 | 4.85 | – |
| NC(=O)C1CCCN(c2ccc(C(=O)NC(CCO)c3ccc(Cl)cc3)cc2)C1 (stereo not drawn) | 4.85 | – |
| O=C(NC(CCO)c1ccc(Cl)cc1)c1ccc(N2CCC(O)C2)cc1 (stereo not drawn) | 4.82 | – |
| CC(=O)NCc1ccc(C(=O)NC2(c3ccc(Cl)cc3)COC2)cc1 | 4.01 | – |
| C=CC(=O)N1CCCc2c(C(=O)NC(c3ccc(Cl)cc3)C3CC3)cccc21 (stereo not drawn) | 4.37 | ΔTm [2]: 4 °C; Activity [3]: Active; Rmax [4]: 54% |
| O=C(NC1(c2ccc(Cl)cc2)COC1)c1ccc(C2(O)COC2)cc1 | 4.70 | – |
| C=CC(=O)Nc1ccc(CC(=O)NC2(c3ccccc3)COC2)cc1 | – | Activity [5]: inactive; Activity [3]: inactive; Rmax [4]: inactive |
| O=C1Cc2c(cccc2C(=O)NC2(c3ccc(Cl)cc3)COC2)N1 | 4.66 | – |
| Cc1cn2cc(C(=O)NC3(c4ccc(Cl)cc4)COC3)sc2n1 | 4.96 | – |
| C=CC(=O)N1CCCc2c(C(=O)NC(c3ccc(F)cc3)C3CCCCC3)cccc21 (stereo not drawn) | – | Activity [5]: inactive; Activity [3]: inactive; Rmax [4]: inactive |
| O=C(c1ccc(N2CCC(O)C2)cc1)N1CC(O)(c2ccc(Cl)cc2)C1 (stereo not drawn) | 4.80 | – |
| O=C(NC1(c2ccc(Cl)cc2)COC1)c1ccc(CN2CCCC2=O)cc1 | 4.96 | – |

Further lines, with some results ahead:

| pKd [1] | SMILES | other results |
| --- | --- | --- |
| 5.10 | O=C(NC1(c2ccc(Cl)cc2)COC1)c1ccc(-c2cc[nH]n2)s1 | – |
| 4.44 | C=CC(=O)N1CCCc2c(C(=O)NC3(c4ccc(Cl)cc4)COC3)cccc21 | ΔTm [2]: 4 °C; Activity [3]: Active; Rmax [4]: 53% |
| 4.43 | NC(=O)C1CCCN(c2ccc(C(=O)NC(c3ccc(Cl)cc3)C3CC3)cc2)C1 (stereo not drawn) | – |
| 4.38 | Nc1ncnc2ccc(C(=O)NC3(c4ccc(Cl)cc4)COC3)cc12 | – |
| 4.00 | O=C(NC(CCO)c1ccc(Cl)cc1)c1ccc(CN2CCCC2=O)cc1 (stereo not drawn) | – |
| 5.22 | O=C(NC1(c2ccc(Cl)cc2)COC1)c1ccc(N2CCC(O)CC2)cc1 | – |
